From ChEMBL document CHEMBL5614384, “Synthesis and antiproliferative activity of (-)-cleistenolide, (6S)-cleistenolide and 4-substituted cleistenolide analogues” (Bioorg Med Chem, 2024)
pIC50: −log10 of the molar value.

Assays:
HeLa = assay: Antiproliferative activity against human HeLa cells assessed as inhibition of cell growth incubated for 72 hrs by MTT assay; assay type: functional, cell-based
[1] = (§1) Cytotoxicity against human MRC5 cells assessed as inhibition of cell growth incubated for 72 hrs by MTT assay; assay type: toxicity, cell-based; details: human, MRC5 cells
K562 [2] = assay: Antiproliferative activity against human K562 cells assessed as inhibition of cell growth incubated for 72 hrs by MTT assay; assay type: functional, cell-based; details: K562, 72 h
Jurkat = assay: Antiproliferative activity against human Jurkat cells assessed as inhibition of cell growth incubated for 72 hrs by MTT assay; assay type: functional, cell-based
Raji [3] = assay: Antiproliferative activity against human Raji cells assessed as inhibition of cell growth incubated for 72 hrs by MTT assay; assay type: functional, cell-based
HL-60 = assay: Antiproliferative activity against human HL-60 cells assessed as inhibition of cell growth incubated for 72 hrs by MTT assay; assay type: functional, cell-based; details: HL-60, 72 h
K562 [4] = assay: Potency index, ratio of cleistenolide IC50 to test compound IC50 for antiproliferative activity against human K562 cells assessed as inhibition of cell growth incubated for 72 hrs by MTT assay; assay type: functional
MDA-MB-231 = assay: Antiproliferative activity against estrogen receptor negative human MDA-MB-231 cells assessed as inhibition of cell growth incubated for 72 hrs by MTT assay; assay type: functional, cell-based; details: MDA-MB-231, 72 h
A549 = assay: Antiproliferative activity against human A549 cells assessed as inhibition of cell growth incubated for 72 hrs by MTT assay; assay type: functional, cell-based; details: A549, 72 h
MCF7 [5] = assay: Antiproliferative activity against estrogen receptor positive human MCF7 cells assessed as inhibition of cell growth incubated for 72 hrs by MTT assay; assay type: functional, cell-based; details: MCF7, 72 h
Raji [6] = assay: Potency index, ratio of cleistenolide IC50 to test compound IC50 for antiproliferative activity against human Raji cells assessed as inhibition of cell growth incubated for 72 hrs by MTT assay; assay type: functional
MRC5 = assay: as §1; assay type: toxicity, cell-based; details: mrc5
MCF7 [7] = assay: Potency index, ratio of cleistenolide IC50 to test compound IC50 for antiproliferative activity against human MCF7 cells assessed as inhibition of cell growth incubated for 72 hrs by MTT assay; assay type: functional

| Structure (SMILES) | pIC50 (HeLa) | IC50 at 72 h [1] [µM] | pIC50 (K562 [2]) | pIC50 (Jurkat) | pIC50 (Raji [3]) | pIC50 (HL-60) | Ratio IC50 (K562 [4]) | pIC50 (MDA-MB-231) | pIC50 (A549) | pIC50 (MCF7 [5]) | Ratio IC50 (Raji [6]) | pIC50 (MRC5) | Ratio IC50 (MCF7 [7]) |
| --- | --- | --- | --- | --- | --- | --- | --- | --- | --- | --- | --- | --- | --- |
| O=C1C=C[C@@H](OCc2ccccc2)[C@@H]([C@@H](COC(=O)c2ccccc2)OCc2ccccc2)O1 | 5.08 | > 100 | 6.17 | 4.92 | 4.72 | 5.48 | >10 | 4.72 | 4.89 | 5.23 |  |  |  |
| CC(=O)O[C@H](COC(=O)c1ccccc1)[C@H]1OC(=O)C=C[C@H]1OC(=O)/C=C/c1ccccc1 | 5.15 | > 100 | 6.12 | 4.93 | 5.48 | 5.20 | >10 | 5.37 | 5.07 | 4.65 | >10 |  |  |
| CC1(C)O[C@H]2O[C@@H]3C=CC(=O)O[C@@H]3[C@H]2O1 | 5.22 | > 100 | 5.47 | 4.57 | 4.53 | 4.65 |  | 4.61 | 4.78 | 5.08 |  |  |  |
| CC(=O)O[C@H](COC(=O)c1ccccc1)[C@H]1OC(=O)C=C[C@H]1OC(=O)c1c(Cl)cc(Cl)cc1Cl | 5.06 | > 100 | 4.93 | 5.03 | 4.63 | 4.64 |  | 4.63 | 5.30 | 4.55 |  |  |  |
| CC(=O)O[C@H](COC(=O)c1ccccc1)[C@H]1OC(=O)C=C[C@H]1O[Si](C)(C)C(C)(C)C | 5.00 | > 100 | 5.17 | 4.78 | 4.72 | 4.93 |  | 4.45 | 4.92 | 5.38 |  |  |  |
| CC(=O)O[C@H](COC(=O)c1ccccc1)[C@H]1OC(=O)C=C[C@H]1OS(=O)(=O)c1ccc(C)cc1 | 4.80 | > 100 | 5.35 | 4.58 | 4.72 | 4.68 |  | 4.83 | 4.91 | 4.95 |  |  |  |
| CC(=O)O[C@H](COC(=O)c1ccccc1)[C@H]1OC(=O)C=C[C@H]1OS(C)(=O)=O | 4.85 |  | 5.06 | 4.82 | 4.77 | 5.44 |  | 4.83 | 4.95 | 5.49 |  | < 4.00 | ~8 |
| O=C1C=C[C@@H](O)[C@@H]([C@@H](O)COC(=O)c2ccccc2)O1 | 5.33 | > 100 | 5.91 | 4.81 | 4.95 | 4.91 | 5 | 4.85 | 4.70 | 4.98 |  |  |  |
| COc1ccc(/C=C/C(=O)O[C@@H]2C=CC(=O)O[C@@H]2[C@@H](COC(=O)c2ccccc2)OC(C)=O)cc1OC | 5.06 | > 100 | 5.34 | 4.65 | 4.58 | 5.24 |  | 4.80 | 4.87 | 5.20 |  |  |  |
| CC(=O)OC[C@@H](OC(C)=O)[C@H]1OC(=O)C=C[C@H]1OCc1ccccc1 | 5.21 | > 100 | 5.95 | 4.72 | 4.93 | 5.86 | 5 | 4.79 | 4.63 | 4.81 |  |  |  |
